Patent publication US9636299B2, “Method for treating diabetic retinopathy” (XAVIER UNIVERSITY OF LOUISIANA, priority 2012, dated 2017)
Residues, ends and D or L forms follow the SMILES beside them.

Assays:
[1] = Corneal permeability of topical 1% apoEdp eye drops in mice, UPLC-MS of pooled aqueous and vitreous humor; type: in vivo; parameters: key to Meas'd conc. / Total: *: No peak detected
Experimental: The apoEdp peptide (SEQ ID NO:3) is rich in cationic amino acids, and the inventor postulated that it may cross the cornea into the anterior and posterior chambers of the eye. […] Thus, apoEdp can be used for non-invasive treatment of posterior eye diseases.
A one percent (1%) solution comprising apoEdp in PBS was prepared. This solution was applied bilaterally via eyedropper to the eyes of mice (n=4). The mice were sacrificed at 0, 1, 2, or 3 hours after application of the solution, and the eyes were enucleated. The aqueous and vitreous humor from each eye was collected and pooled, mixed with 1 mL of 0.1% formic acid solution, and allowed to stand for 5 minutes. The samples were then filtered with a 0.2 μm filter and analyzed with the Acquity UPLC system (Waters Corp., Milford, Mass.) with mass spectrophotometric detection.
Initially, the mass range for the peptide was scanned several peaks corresponding to different charged states of the peptide were found. These peaks included 484.9 m/z, 604.4 m/z, and 805.6 m/z. The 484.9 peak was used for the analysis because it was the strongest peak. For the UPLC analysis, a 2.1 mm×100 mm×1.7 μm BEH300 C4 column was used. A two-component mobile phase was used with component 1 (C1): 0.1% formic Acid, and Component 2 (C2): Acetonitrile with 0.1% formic acid. The flow rate was 0.2 mL/min and gradient elution was used with a linear gradient (see TABLE 2). Retention time for the peptide was 4.6 minutes.

[2] = test system: endothelial nitric oxide synthase (eNOS); assay: eNOS expression in high glucose-treated hRMECs (Western blot); type: cell-based, human; details: 100 μM apoEdp, 30 minute treatment
Text: (§1) Cell Culture. Primary cultures of human retina microvascular endothelial cells (hRMECs) were purchased from the Applied Cell Biology Research Institute and grown on attachment factor-coated plates in cell systems complete (CSC) medium (Cell Systems, Kirkland, Wash.) supplemented with 20% fetal bovine serum, culture boost (animal derived growth factors) and bac-off (antibiotics). The primary hRMECs were used in their passages 4 to 6. The 18-a.a. apoE mimetic peptide apoEdp (SEQ ID NO:3, Ac-LRKLRKRLLLRKLRKRLL-amide), derived from the human apolipoprotein E receptor-binding region (see SED ID NO:1) between residues 141 and 149, was synthesized (Genemed, Arlington, Tex.) with a purity of greater than 95%. The apoEdp peptide was dissolved in phosphate-buffered saline (“PBS”) at a concentration appropriate for further experimental use. […]
(§2) Western Blotting. […] The total protein concentration was determined using a BCA protein assay kit (Pierce, Rockford, Ill.). […] To ensure the equal loading of protein in each lane, each membrane was stripped and re-probed with an antibody against β-actin, and the chemiluminescence was detected as described previously. After scanning the blots with a flatbed scanner, band intensities were analyzed using ImageJ (NIH) and the relative intensity values were normalized to control values. […]

[3] = test system: occludin; assay: Occludin expression in high glucose-treated hRMECs (Western blot); type: cell-based, human
Text: as §1, §2

[4] = test system: LRP-1; assay: LRP-1 expression in high sugar induced hRMECs (Western blot); type: cell-based, human; details: high sugar induced serum starved hRMECs, 1% apoEdp, 24 hours
Experimental: Using an anti-LRP-1 antibody (human LRP-1; 1:1000, Santa Cruz Biotechnology, CA) and Western blot analysis, selective inhibition of LRP-1 by apoEdp treatment (24 hours) in serum starved hRMECs cells was shown.

[5] = test system: VEGF-induced ocular angiogenesis; details: rabbit eye model, reference 17; cited from earlier work
[6] = OD (right eye), 0 h after topical 1% apoEdp
[7] = OD (right eye), 1 h after topical 1% apoEdp
[8] = OD (right eye), 2 h after topical 1% apoEdp
[9] = OD (right eye), 3 h after topical 1% apoEdp
[10] = OS (left eye), 1 h after topical 1% apoEdp
[11] = OS (left eye), 2 h after topical 1% apoEdp
[12] = OS (left eye), 3 h after topical 1% apoEdp

Meas'd conc. [1, 6]: *
Total [1, 6]: *
Meas'd conc. [1, 7]: 0.022 µg/mL
Total [1, 7]: 22.2 ng
Meas'd conc. [1, 8]: 0.006 µg/mL
Total [1, 8]: 5.9 ng
Meas'd conc. [1, 9]: 0.036 µg/mL
Total [1, 9]: 36.3 ng
Total ([1]; OS (left eye), 0 h after topical 1% apoEdp): *
Meas'd conc. ([1]; OS (left eye), 0 h after topical 1% apoEdp in PBS, pooled aqueous and vitreous humor): *
Meas'd conc. [1, 10]: *
Total [1, 10]: *
Meas'd conc. [1, 11]: 0.004 µg/mL
Total [1, 11]: 3.89 ng
Meas'd conc. [1, 12]: 0.058 µg/mL
Total [1, 12]: 58.08 ng
Compound: CC(=O)N[C@@H](CC(C)C)C(=O)N[C@@H](CCCNC(=N)N)C(=O)N[C@@H](CCCCN)C(=O)N[C@@H](CC(C)C)C(=O)N[C@@H](CCCNC(=N)N)C(=O)N[C@@H](CCCCN)C(=O)N[C@@H](CCCNC(=N)N)C(=O)N[C@@H](CC(C)C)C(=O)N[C@@H](CC(C)C)C(=O)N[C@@H](CC(C)C)C(=O)N[C@@H](CCCNC(=N)N)C(=O)N[C@@H](CCCCN)C(=O)N[C@@H](CC(C)C)C(=O)N[C@@H](CCCNC(=N)N)C(=O)N[C@@H](CCCCN)C(=O)N[C@@H](CCCNC(=N)N)C(=O)N[C@@H](CC(C)C)C(=O)N[C@@H](CC(C)C)C(N)=O [apoEdp, Ac-LRKLRKRLLLRKLRKRLL-amide] (Ac-LRKLRKRLLLRKLRKRLL-NH2)
Detection of topically-applied apoEdp inside the eye (cornea penetration) ([1]; topical 1% apoEdp): detected inside the eye in as little as one hour after application
Elevated expression of eNOS induced by 30 mM D-glucose [2]: prevented
Occludin expression versus 30 mM glucose alone ([3]; hRMECs co-incubated with 100 μM apoEdp and 30 mM glucose): greater levels of occludin
High glucose-induced loss of tight junction protein occludin ([3]; hRMECs, 30 mM glucose 72 hours, 50 or 100 μM apoEdp): reduced
Upregulation of LRP-1 [4]: inhibiting the upregulation
VEGF-induced ocular angiogenesis [5]: blocks
